Where two headings read alike, the source gives them in different places. Where only a bound is given, the exact number is not on record here.

By IC50 is commonly meant the concentration that inhibits the measured activity by half.

In one experiment the target is PI3K (Homo sapiens, UniProt P42336). Briefly: Fluorescence polarization assay for PI3K.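 Also: PI3K kinase reaction on PIP2 with ATP, 30-60 min, product sensed by GST-GRP with red probe in fluorescence polarization (mP), controls without enzyme and at zero time.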 In kind it is biochemical. On the technique in general: Polarisation of emitted light reports the rotation of a fluorescent probe.
Another experiment relates to prostate line LNCap. Briefly: In vitro cell culture growth assay (MTS), LNCap. In kind it is cell-based, human. The settings on record: Homo sapiens, 72 h, LNCap cells, three days after drug treatment.
In the next experiment the test system is breast line MDA468. Briefly: In vitro cell culture growth assay (MTS), MDA468. The conditions noted are these: Homo sapiens, 72 h, MDA468 cells, three days after drug treatment. The format is cell-based, human. An outline of the steps: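 Cells were plated and, one day later, exposed to inhibitors for three days; viable cell density was then measured by metabolic conversion of MTS dye, read as absorbance at 490 nm. Growth is expressed as percent of vehicle-treated control cells on the same plate.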

Chain of PI3K (P42336 whole entry): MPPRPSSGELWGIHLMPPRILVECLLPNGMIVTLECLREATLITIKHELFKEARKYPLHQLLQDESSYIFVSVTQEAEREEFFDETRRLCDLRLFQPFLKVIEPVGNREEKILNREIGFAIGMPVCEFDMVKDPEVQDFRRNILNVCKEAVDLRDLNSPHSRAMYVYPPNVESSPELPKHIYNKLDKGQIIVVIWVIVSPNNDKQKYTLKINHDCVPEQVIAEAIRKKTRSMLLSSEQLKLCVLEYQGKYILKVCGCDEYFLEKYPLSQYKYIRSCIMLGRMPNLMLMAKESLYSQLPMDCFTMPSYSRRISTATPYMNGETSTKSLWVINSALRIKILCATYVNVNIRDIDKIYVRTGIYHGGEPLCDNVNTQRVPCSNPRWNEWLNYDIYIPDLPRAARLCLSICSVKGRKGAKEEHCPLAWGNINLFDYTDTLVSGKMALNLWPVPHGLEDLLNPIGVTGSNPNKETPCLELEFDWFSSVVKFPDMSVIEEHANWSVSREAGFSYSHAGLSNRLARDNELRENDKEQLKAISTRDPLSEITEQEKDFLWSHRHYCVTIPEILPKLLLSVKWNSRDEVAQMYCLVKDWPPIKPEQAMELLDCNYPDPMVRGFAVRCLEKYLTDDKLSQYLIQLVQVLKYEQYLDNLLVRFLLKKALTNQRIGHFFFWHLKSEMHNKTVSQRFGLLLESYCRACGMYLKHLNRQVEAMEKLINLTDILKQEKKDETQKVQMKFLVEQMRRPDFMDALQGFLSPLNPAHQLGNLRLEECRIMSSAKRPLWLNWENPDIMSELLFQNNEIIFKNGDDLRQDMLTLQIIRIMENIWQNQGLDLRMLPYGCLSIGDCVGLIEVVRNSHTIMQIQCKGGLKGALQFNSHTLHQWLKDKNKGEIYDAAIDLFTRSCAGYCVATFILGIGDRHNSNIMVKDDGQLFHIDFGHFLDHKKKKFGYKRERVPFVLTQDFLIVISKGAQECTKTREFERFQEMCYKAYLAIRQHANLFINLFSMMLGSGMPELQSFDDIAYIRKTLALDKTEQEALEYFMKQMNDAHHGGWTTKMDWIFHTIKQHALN
Chain of PI3K (P27986 whole entry partner): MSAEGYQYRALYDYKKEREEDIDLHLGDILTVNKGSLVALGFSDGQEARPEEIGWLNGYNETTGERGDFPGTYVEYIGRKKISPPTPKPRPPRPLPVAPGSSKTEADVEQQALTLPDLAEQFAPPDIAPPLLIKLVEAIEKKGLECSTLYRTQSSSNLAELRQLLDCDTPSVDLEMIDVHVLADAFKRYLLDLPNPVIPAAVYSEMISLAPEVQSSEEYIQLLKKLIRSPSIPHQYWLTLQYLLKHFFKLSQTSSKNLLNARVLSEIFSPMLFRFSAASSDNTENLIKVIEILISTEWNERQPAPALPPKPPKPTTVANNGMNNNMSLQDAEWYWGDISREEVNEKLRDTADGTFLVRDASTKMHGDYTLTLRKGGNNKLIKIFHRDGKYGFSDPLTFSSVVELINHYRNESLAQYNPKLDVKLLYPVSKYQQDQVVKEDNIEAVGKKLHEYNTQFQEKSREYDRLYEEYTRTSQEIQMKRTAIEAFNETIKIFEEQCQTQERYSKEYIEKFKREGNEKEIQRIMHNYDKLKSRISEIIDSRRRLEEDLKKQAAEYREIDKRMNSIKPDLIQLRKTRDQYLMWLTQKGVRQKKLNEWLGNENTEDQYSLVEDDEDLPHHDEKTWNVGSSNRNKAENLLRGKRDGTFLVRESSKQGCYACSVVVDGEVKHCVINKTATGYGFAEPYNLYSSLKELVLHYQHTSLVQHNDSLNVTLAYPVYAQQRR

On to `COC(=O)N1CCC(n2ncc3c(N4CCOC(C)C4)nc(-c4ccc(NC(=O)Nc5ccccn5)cc4)nc32)CC1` (stereo not drawn) [Compound 847, methyl 4-[4-(2-methylmorpholin-4-yl)-6-{4-[(pyridin-2-ylcarbamoyl)amino]phenyl}-1H-pyrazolo[3,4-d]pyrimidin-1-yl]piperidine-1-carboxylate], for which the IC50 is 8320 nM on PI3K (PI3Kα, read-out: PI3Kα IC50); 13000 nM with prostate line LNCap (LNCaP); 15000 nM in the experiment with breast line MDA468.

Regarding `COC(=O)N1CCC(n2ncc3c(N4CCOC(C)C4)nc(-c4ccc(NC(=O)Nc5ccccc5)cc4)nc32)CC1` (stereo not drawn) [Compound 848, methyl 4-[6-{4-[(anilinocarbonyl)amino]phenyl}-4-(2-methylmorpholin-4-yl)-1H-pyrazolo[3,4-d]pyrimidin-1-yl]piperidine-1-carboxylate], the IC50 was determined as 60 nM on PI3K (PI3Kα, read-out: PI3Kα IC50); 62 nM in the experiment on prostate line LNCap (LNCaP); 720 nM in the experiment with breast line MDA468.

Regarding `CCCOC(=O)N1CCC(n2ncc3c(N4CCOCC4)nc(-c4ccc(NC(=O)Nc5ccccc5)cc4)nc32)CC1` [Compound 849, propyl 4-(4-morpholin-4-yl-6-{4-[(phenylcarbamoyl)amino]phenyl}-1H-pyrazolo[3,4-d]pyrimidin-1-yl)piperidine-1-carboxylate], the IC50 was 24 nM at PI3K (PI3Kα, read-out: PI3Kα IC50); 95 nM in the experiment on prostate line LNCap (LNCaP); 300 nM in the experiment on breast line MDA468.

As for `CCCOC(=O)N1CCC(n2ncc3c(N4CCOCC4)nc(-c4ccc(NC(=O)Nc5cccnc5)cc4)nc32)CC1` [Compound 850, propyl 4-(4-morpholin-4-yl-6-{4-[(pyridin-3-ylcarbamoyl)amino]phenyl}-1H-pyrazolo[3,4-d]pyrimidin-1-yl)piperidine-1-carboxylate], the IC50 at PI3K (PI3Kα, read-out: PI3Kα IC50) is 38 nM; with prostate line LNCap (LNCaP) it was below 27 nM; in the experiment on breast line MDA468 it was 120 nM.

`CCCOC(=O)N1CCC(n2ncc3c(N4CCOCC4)nc(-c4ccc(NC(=O)Nc5ccncc5)cc4)nc32)CC1` [Compound 851, propyl 4-(4-morpholin-4-yl-6-{4-[(pyridin-4-ylcarbamoyl)amino]phenyl}-1H-pyrazolo[3,4-d]pyrimidin-1-yl)piperidine-1-carboxylate]: the IC50 on PI3K (PI3Kα, read-out: PI3Kα IC50) is 22 nM; with prostate line LNCap (LNCaP), below 27 nM; with breast line MDA468 it was 110 nM.

For the compound `CCCOC(=O)N1CCC(n2ncc3c(N4CCOCC4)nc(-c4ccc(NC(=O)NCC)cc4)nc32)CC1` [Compound 852, propyl 4-(6-{4-[(ethylcarbamoyl)amino]phenyl}-4-morpholin-4-yl-1H-pyrazolo[3,4-d]pyrimidin-1-yl)piperidine-1-carboxylate], the IC50 on PI3K (PI3Kα, read-out: PI3Kα IC50) stood at 577 nM; in the experiment on prostate line LNCap (LNCaP), 80 nM; with breast line MDA468, 510 nM.

On to `CCCNC(=O)Nc1ccc(-c2nc(N3CCOCC3)c3cnn(C4CCN(C(=O)OCCC)CC4)c3n2)cc1` [Compound 853, propyl 4-(4-morpholin-4-yl-6-{4-[(propylcarbamoyl)amino]phenyl}-1H-pyrazolo[3,4-d]pyrimidin-1-yl)piperidine-1-carboxylate], for which the IC50 was found to be 824 nM at PI3K (PI3Kα, read-out: PI3Kα IC50); 130 nM in the experiment on prostate line LNCap (LNCaP); 1000 nM in the experiment on breast line MDA468.

On to `CCCOC(=O)N1CCC(n2ncc3c(N4CCOCC4)nc(-c4ccc(NC(=O)NCCF)cc4)nc32)CC1` [Compound 854, propyl 4-[6-(4-{[(2-fluoroethyl)carbamoyl]amino}phenyl)-4-morpholin-4-yl-1H-pyrazolo[3,4-d]pyrimidin-1-yl]piperidine-1-carboxylate], for which the IC50 at PI3K (PI3Kα, read-out: PI3Kα IC50) came out at 600 nM; with prostate line LNCap (LNCaP), 27 nM; in the experiment with breast line MDA468, 330 nM.

For the compound `CCCOC(=O)N1CCC(n2ncc3c(N4CCOCC4)nc(-c4ccc(NC(=O)NCCO)cc4)nc32)CC1` [Compound 855, propyl 4-[6-(4-{[(2-hydroxyethyl)carbamoyl]amino}phenyl)-4-morpholin-4-yl-1H-pyrazolo[3,4-d]pyrimidin-1-yl]piperidine-1-carboxylate], the IC50 at PI3K (PI3Kα, read-out: PI3Kα IC50) stood at 186 nM; in the experiment with prostate line LNCap (LNCaP), 430 nM; in the experiment on breast line MDA468 it was 330 nM.

As for `CCCOC(=O)N1CCC(n2ncc3c(N4CCOCC4)nc(-c4ccc(NC(=O)NC5CC5)cc4)nc32)CC1` [Compound 856, propyl 4-(6-{4-[(cyclopropylcarbamoyl)amino]phenyl}-4-morpholin-4-yl-1H-pyrazolo[3,4-d]pyrimidin-1-yl)piperidine-1-carboxylate], the IC50 is 770 nM on PI3K (PI3Kα, read-out: PI3Kα IC50); 90 nM in the experiment with prostate line LNCap (LNCaP); 510 nM in the experiment on breast line MDA468.

With `CCCOC(=O)N1CCC(n2ncc3c(N4CCOCC4)nc(-c4ccc(NC(=O)OC)cc4)nc32)CC1` [Compound 857, propyl 4-(6-{4-[(methoxycarbonyl)amino]phenyl}-4-morpholin-4-yl-1H-pyrazolo[3,4-d]pyrimidin-1-yl)piperidine-1-carboxylate], the IC50 was found to be 2770 nM at PI3K (PI3Kα, read-out: PI3Kα IC50); 1600 nM with prostate line LNCap (LNCaP); 5000 nM in the experiment with breast line MDA468.

Consider `CCCOC(=O)N1CCC(n2ncc3c(N4CCOCC4)nc(-c4ccc(NC(=O)NCC5CC5)cc4)nc32)CC1` [Compound 858, propyl 4-[6-(4-{[(cyclopropylmethyl)carbamoyl]amino}phenyl)-4-morpholin-4-yl-1H-pyrazolo[3,4-d]pyrimidin-1-yl]piperidine-1-carboxylate], for which the IC50 turned out to be 2150 nM at PI3K (PI3Kα, read-out: PI3Kα IC50); 800 nM in the experiment with prostate line LNCap (LNCaP); 3200 nM in the experiment on breast line MDA468.

As for `COC(=O)N1CCC(n2ncc3c(N4CCOCC4)nc(-c4ccc(NC(=O)Nc5ccc(F)cc5)cc4)nc32)CC1` [Compound 859, methyl 4-[6-(4-{[(4-fluorophenyl)carbamoyl]amino}phenyl)-4-morpholin-4-yl-1H-pyrazolo[3,4-d]pyrimidin-1-yl]piperidine-1-carboxylate], the IC50 at PI3K (PI3Kα, read-out: PI3Kα IC50) worked out at 28 nM; with prostate line LNCap (LNCaP) it was 27 nM; with breast line MDA468, 78 nM.

As to `COC(=O)N1CCC(n2ncc3c(N4CCOCC4)nc(-c4ccc(NC(=O)Nc5ccccc5F)cc4)nc32)CC1` [Compound 860, methyl 4-[6-(4-{[(2-fluorophenyl)carbamoyl]amino}phenyl)-4-morpholin-4-yl-1H-pyrazolo[3,4-d]pyrimidin-1-yl]piperidine-1-carboxylate], the IC50 at PI3K (PI3Kα, read-out: PI3Kα IC50) came out at 38 nM; with prostate line LNCap (LNCaP), 120 nM; in the experiment on breast line MDA468 it was 390 nM.

Take `COC(=O)N1CCC(n2ncc3c(N4CCOCC4)nc(-c4ccc(NC(=O)Nc5ccc(F)cc5F)cc4)nc32)CC1` [Compound 861, methyl 4-[6-(4-{[(2,4-difluorophenyl)carbamoyl]amino}phenyl)-4-morpholin-4-yl-1H-pyrazolo[3,4-d]pyrimidin-1-yl]piperidine-1-carboxylate]: the IC50 at PI3K (PI3Kα, read-out: PI3Kα IC50) stood at 250 nM; in the experiment with prostate line LNCap (LNCaP), 110 nM; with breast line MDA468 it was 580 nM.

In the case of `COC(=O)N1CCC(n2ncc3c(N4CCOCC4)nc(-c4ccc(NC(=O)Nc5ccc(F)nc5)cc4)nc32)CC1` [Compound 862, methyl 4-[6-(4-{[(6-fluoropyridin-3-yl)carbamoyl]amino}phenyl)-4-morpholin-4-yl-1H-pyrazolo[3,4-d]pyrimidin-1-yl]piperidine-1-carboxylate], the IC50 is 107 nM on PI3K (PI3Kα, read-out: PI3Kα IC50); below 23 nM in the experiment with prostate line LNCap (LNCaP); below 88.5 nM with breast line MDA468.

For `COC(=O)N1CCC(n2ncc3c(N4CCOCC4)nc(-c4ccc(NC(=O)Nc5cccnc5F)cc4)nc32)CC1` [Compound 863, methyl 4-[6-(4-{[(2-fluoropyridin-3-yl)carbamoyl]amino}phenyl)-4-morpholin-4-yl-1H-pyrazolo[3,4-d]pyrimidin-1-yl]piperidine-1-carboxylate], the IC50 on PI3K (PI3Kα, read-out: PI3Kα IC50) worked out at 266 nM; in the experiment on prostate line LNCap (LNCaP), 170 nM; in the experiment with breast line MDA468, 680 nM.

On to `COC(=O)N1CCC(n2ncc3c(N4CCOCC4)nc(-c4ccc(NC(=O)Nc5ccncc5F)cc4)nc32)CC1` [Compound 864, methyl 4-[6-(4-{[(3-fluoropyridin-4-yl)carbamoyl]amino}phenyl)-4-morpholin-4-yl-1H-pyrazolo[3,4-d]pyrimidin-1-yl]piperidine-1-carboxylate], for which the IC50 at PI3K (PI3Kα, read-out: PI3Kα IC50) was determined as 116 nM; with prostate line LNCap (LNCaP), 27.4 nM; in the experiment with breast line MDA468, 98 nM.

As for `COC(=O)N1CCC(n2ncc3c(N4CCOCC4)nc(-c4ccc(NC(=O)OCCF)cc4)nc32)CC1` [Compound 865, methyl 4-[6-(4-{[(2-fluoroethoxy)carbonyl]amino}phenyl)-4-morpholin-4-yl-1H-pyrazolo[3,4-d]pyrimidin-1-yl]piperidine-1-carboxylate], the IC50 amounted to 2950 nM at PI3K (PI3Kα, read-out: PI3Kα IC50); 680 nM with prostate line LNCap (LNCaP); 4100 nM in the experiment on breast line MDA468.

For `COC(=O)N1CCC(n2ncc3c(N4CCOCC4)nc(-c4ccc(NC(=O)Oc5ccccc5F)cc4)nc32)CC1` [Compound 866, methyl 4-[6-(4-{[(2-fluorophenoxy)carbonyl]amino}phenyl)-4-morpholin-4-yl-1H-pyrazolo[3,4-d]pyrimidin-1-yl]piperidine-1-carboxylate], the half-maximal inhibitory concentration (IC50) on PI3K (PI3Kα IC50, PI3Kα) worked out at 12000 nM; with prostate line LNCap, 12000 nM; with breast line MDA468, 30000 nM.

As to `CNC(=O)Nc1ccc(-c2nc(N3CCOCC3)c3cnn(C4CCSCC4)c3n2)cc1` [Compound 867, 1-methyl-3-{4-[4-morpholin-4-yl-1-(tetrahydro-2H-thiopyran-4-yl)-1H-pyrazolo[3,4-d]pyrimidin-6-yl]phenyl}urea], the IC50 on PI3K (PI3Kα, read-out: PI3Kα IC50) is 47 nM; with prostate line LNCap (LNCaP) it was below 18.5 nM; in the experiment with breast line MDA468, below 68.5 nM.

Consider `CNC(=O)Nc1ccc(-c2nc(N3CCOCC3)c3cnn(C4CC[S+]([O-])CC4)c3n2)cc1` (stereo not drawn) [Compound 868, 1-methyl-3-{4-[4-morpholin-4-yl-1-(1-oxidotetrahydro-2H-thiopyran-4-yl)-1H-pyrazolo[3,4-d]pyrimidin-6-yl]phenyl}urea], for which the half-maximal inhibitory concentration (IC50) was 80 nM at PI3K (PI3Kα, read-out: PI3Kα IC50); 1200 nM in the experiment on prostate line LNCap (LNCaP); 720 nM in the experiment on breast line MDA468.

The values are drawn from US20080234262A1 (Wyeth, priority 2007, published 2008).
